Measured values reported in ChEMBL document CHEMBL1201862, “PubChem BioAssay data set” (2004).
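Values below derive from 48-hour exposures of cells grown in 96-well plates, with endpoints linearly interpolated between the two concentrations bracketing the appropriate inhibition level. Abbreviation: GI50, concentration required for 50% inhibition of growth.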 The source made the active and inactive calls. Rule as the data show it: active = GI50 up to about 1.1 µM and inactive = higher.

Assays:
Experiment in all cases: growth of human tumour cells (NCI), 48 h
[1] = test system: SF-268
[2] = test system: SR
[3] = test system: TK-10
[4] = test system: IGROV-1
[5] = test system: SK-MEL-5
[6] = test system: UO-31
[7] = test system: HOP-92
[8] = test system: NCI-H460
[9] = test system: SNB-19
[10] = test system: A549
[11] = test system: U-251
[12] = test system: RPMI-8226
[13] = test system: XF498
[14] = test system: OVCAR-3
[15] = test system: EKVX
[16] = test system: HOP-62
[17] = test system: ACHN
[18] = test system: DU-145
[19] = test system: NCI/ADR-RES
[20] = test system: MCF7

## Cc1cnoc1/N=C1\C=C(Nc2oncc2C)C(=O)c2ccccc21
[1]
  GI50: > 100 µM (inactive)
[2]
  GI50: > 100 µM (inactive)
[3]
  GI50: > 100 µM (inactive)
[4]
  GI50: > 100 µM (inactive)
[5]
  GI50: 33.3 µM (inactive)
[6]
  GI50: 62.1 µM (inactive)
[7]
  GI50: > 100 µM (inactive)
[8]
  GI50: > 100 µM (inactive)
[9]
  GI50: > 100 µM (inactive)
[10]
  GI50: > 100 µM (inactive)
[11]
  GI50: > 100 µM (inactive)
[12]
  GI50: > 100 µM (inactive)
[13]
  GI50: > 100 µM (inactive)
[14]
  GI50: 9.86 µM (inactive)
[15]
  GI50: > 100 µM (inactive)
[16]
  GI50: > 100 µM (inactive)
[17]
  GI50: > 100 µM (inactive)

## COc1cccc(/C=C2\CCC(CN(C)C)C2=O)c1 (stereo not drawn)
[1]
  GI50: 6.07 µM (inactive)
[2]
  GI50: 1.69 µM (inactive)
[3]
  GI50: 10.2 µM (inactive)
[4]
  GI50: 8.47 µM (inactive)
[5]
  GI50: 9.82 µM (inactive)
[6]
  GI50: 9.51 µM (inactive)
[7]
  GI50: 13.7 µM (inactive)
[8]
  GI50: 16.2 µM (inactive)
[9]
  GI50: 13.5 µM (inactive)
[10]
  GI50: 19 µM (inactive)
[18]
  GI50: 2.74 µM (inactive)
[19]
  GI50: 2.42 µM (inactive)
[11]
  GI50: 12.3 µM (inactive)
[12]
  GI50: 0.995 µM (active)
[13]
  GI50: 18.9 µM (inactive)
[14]
  GI50: 5.04 µM (inactive)
[15]
  GI50: 19.3 µM (inactive)
[16]
  GI50: 12.1 µM (inactive)
[20]
  GI50: 2.25 µM (inactive)
[17]
  GI50: 11.8 µM (inactive)

## Cn1cccc(C(=O)c2ccccc2)c1=O
[1]
  GI50: > 100 µM (inactive)
[2]
  GI50: > 100 µM (inactive)
[3]
  GI50: > 100 µM (inactive)
[4]
  GI50: > 100 µM (inactive)
[5]
  GI50: > 100 µM (inactive)
[6]
  GI50: > 100 µM (inactive)
[7]
  GI50: > 100 µM (inactive)
[8]
  GI50: > 100 µM (inactive)
[9]
  GI50: > 100 µM (inactive)
[10]
  GI50: > 100 µM (inactive)
[11]
  GI50: > 100 µM (inactive)
[12]
  GI50: > 100 µM (inactive)
[13]
  GI50: > 100 µM (inactive)
[14]
  GI50: > 100 µM (inactive)
[15]
  GI50: > 100 µM (inactive)
[16]
  GI50: > 100 µM (inactive)
[17]
  GI50: > 100 µM (inactive)

## CC(=O)C1CC=C(C)CC1 (stereo not drawn)
[1]
  GI50: > 100 µM (inactive)
[2]
  GI50: > 100 µM (inactive)
[3]
  GI50: > 100 µM (inactive)
[4]
  GI50: > 100 µM (inactive)
[5]
  GI50: > 100 µM (inactive)
[6]
  GI50: > 100 µM (inactive)
[7]
  GI50: > 100 µM (inactive)
[8]
  GI50: > 100 µM (inactive)
[9]
  GI50: > 100 µM (inactive)
[10]
  GI50: > 100 µM (inactive)
[11]
  GI50: > 100 µM (inactive)
[12]
  GI50: > 100 µM (inactive)
[13]
  GI50: > 100 µM (inactive)
[14]
  GI50: > 100 µM (inactive)
[15]
  GI50: > 100 µM (inactive)
[16]
  GI50: > 100 µM (inactive)
[17]
  GI50: > 100 µM (inactive)

## COC1C(CO)OC(n2c3c(Cl)cccc3c3c4c(c5c6cccc(Cl)c6[nH]c5c32)C(=O)NC4=O)C(O)C1O (stereo not drawn)
[1]
  GI50: 0.149 µM (active)
[2]
  GI50: 0.0282 µM (active)
[3]
  GI50: 0.47 µM (active)
[4]
  GI50: 0.299 µM (active)
[5]
  GI50: 0.157 µM (active)
[6]
  GI50: 0.296 µM (active)
[7]
  GI50: 0.215 µM (active)
[8]
  GI50: 0.177 µM (active)
[9]
  GI50: 0.213 µM (active)
[10]
  GI50: 0.298 µM (active)
[18]
  GI50: 0.202 µM (active)
[19]
  GI50: 0.444 µM (active)
[11]
  GI50: 0.173 µM (active)
[12]
  GI50: 0.242 µM (active)
[13]
  GI50: 0.27 µM (active)
[14]
  GI50: 0.292 µM (active)
[15]
  GI50: 0.463 µM (active)
[16]
  GI50: 0.177 µM (active)
[20]
  GI50: 0.1 µM (active)
[17]
  GI50: 0.113 µM (active)

## Cc1cc(C(=C2C=CC(=[N+](C)C)C=C2)c2ccc([N+](C)(C)C)cc2)ccc1N(C)C
[1]
  GI50: 11.6 µM (inactive)
[2]
  GI50: 1.62 µM (inactive)
[3]
  GI50: 1.57 µM (inactive)
[4]
  GI50: 12.3 µM (inactive)
[5]
  GI50: 11.8 µM (inactive)
[6]
  GI50: 26.3 µM (inactive)
[7]
  GI50: 10.9 µM (inactive)
[8]
  GI50: 3.98 µM (inactive)
[9]
  GI50: 24 µM (inactive)
[10]
  GI50: 4.33 µM (inactive)
[11]
  GI50: 5.53 µM (inactive)
[12]
  GI50: 2.04 µM (inactive)
[13]
  GI50: 1.36 µM (inactive)
[14]
  GI50: 12 µM (inactive)
[15]
  GI50: 4.32 µM (inactive)
[16]
  GI50: 25.2 µM (inactive)
[17]
  GI50: 10.7 µM (inactive)
